# Laboratory results reported in US20130177904A1, “ARNT ISOFORM 3 AS A PREDICTOR OF AMINOFLAVONE RESPONSIVENESS IN CANCER CELLS” (UNIVERSITY OF MARYLAND, BALTIMORE, priority 2010, published 2013).
# Key:
# [1] = tested on: PS2 and Cyp1A1 promoters in MCF7; assay: Chromatin Immunoprecipitation (ChIP), AhR and ER crosstalk; format: cell-based, Human; conditions: MCF7, 4 or 8 hours post-treatment with AF, FIG. 3
# Text: (§1) Considering that the AhR and ER are both nuclear receptors and act as transcription factors, modulation of ER action after AhR activation by AF (“crosstalk”) was theorized to contribute to overall AF effects in ER+ cell lines. Therefore, Chromatin Immunoprecipitation (ChIP) was employed to study the potential crosstalk of AhR and ER after AF action at the PS2 promoter, a classical ER/estradiol inducible gene, and on Cyp1A1, a classical AF/AhR inducible gene known to be induced by AF. Transcription components studied were the AhR, ER, ARNT (the AhR transcriptional partner), RNA Polymerase II and CBP. CBP is a histone acetyl transferase associated with productive AhR induction of gene expression (Hestermann, E. V. and M. Brown, Mol Cell Biol, 23(21):7920-5 (2003)). In both T47D and MCF7 ER+ cell lines, all transcription components tested were present on the Estradiol inducible PS2 gene promotor, including the AhR. On the Cyp1A1 promotor, all the apparatus excluding CBP was present.
# (§2) ChIP analysis was performed employing the Chromatin Immunoprecipitation (ChIP) Assay Kit (Millipore) as per company recommendations. […]
# (§3) The resultant DNA was analyzed by PCR employing GoTaq Green Master Mix (Promega) using the following protocol: 94° C. for 2 minutes for initial melting, followed by 35 cycles at 94° C. for 30 seconds, 55° C. for 40 seconds, 72° C. […]
# [2] = tested on: PS2 and Cyp1A1 promoters in T47D; assay: as above; format: cell-based, Human; conditions: 4 or 8 hours post-treatment with AF, FIG. 3
# Text: as §1, §2, §3
# CAKi1 = CAKi1 renal cell line, NIH dose response data; cited from earlier work
# Hs578t = assay: MTS cell proliferation assay; format: cell-based; conditions: Homo sapiens, Hs-578T, 120 h; Hs578t (ER−), 5 days after treatment, estimated from graph FIG. 1; read-out: IC50 (50% Inhibitory Concentration)
# Method: (§4) The CellTiter 96 Aqueous MTS Reagent (Promega, Cat. G5421 WI) was employed to measure the effects of AF on cell proliferation. Briefly, cells in 100 μl were seeded in 96-well plates (Nunc) at a density of 2,000 cells/well and allowed to attach overnight. AF was added the following day in final concentrations of 0.1 nM to 100 μM in replicas of 8. Proliferation was measured 5 days later by adding 20 μl MTS reagent to the plates and incubation at 37° C. for 2 hours. Viable cells converted the MTS reagent to a formazan product, which was measured 4 hours later at 490 nm using a Synergy HT Multi-Detection Microplate Reader, and KC4 software (Bio-Tek). Cell proliferation was compared to DMSO treated controls as a percentage, against the background growth at the time of AF treatment.
# (§5) For IC50 (50% Inhibiting Concentration) determination, vehicle treated cells were deemed as 100% cell growth. Percent growth inhibition was calculated by dividing AF treated MTS values by MTS values of vehicle treated cells, subtracting background (media alone without cells) from both prior to calculations. […] The data as calculated is more representative of percent cell survival and therefore defined as Inhibitory Concentrations (IC50) rather than GI50 values. That said, they provide for a highly accurate means for comparing effects of AF. IC50 values were estimated directly from the graph (FIG. 1), though model fitting employing BiodataFit 1.02 (Chang Biosciences, found on the world wide web at changbioscience.com/stat/ec50ht.html) provided for highly similar results with model fitting correlations of 0.85 or above and generally small SEE values (standard error of the IC50 estimate).
# MDA-MB-468 = assay: MTS cell proliferation assay; format: cell-based; conditions: Homo sapiens, 120 h; MDA-MB-468 (ER−), 5 days after treatment, estimated from graph FIG. 1; read-out: IC50 (50% Inhibitory Concentration)
# Method: as §4, §5
# MCF7 = assay: MTS cell proliferation assay; format: cell-based; conditions: Homo sapiens, 120 h; MCF7 (ER+), 5 days after treatment, estimated from graph FIG. 1; read-out: IC50 (50% Inhibitory Concentration)
# Method: as §4, §5
# T47D = assay: MTS cell proliferation assay; format: cell-based; conditions: Homo sapiens, 120 h; T47D (ER+), 5 days after treatment, estimated from graph FIG. 1; read-out: IC50 (50% Inhibitory Concentration)
# Method: as §4, §5
# MDA-MB-231 = assay: MTS cell proliferation assay; format: cell-based; conditions: Homo sapiens, 120 h; MDA-MB-231 (ER−), 5 days after treatment, estimated from graph FIG. 1; read-out: IC50 (50% Inhibitory Concentration)
# Method: as §4, §5
# SW620 = SW620 colon cell line, NIH dose response data; cited from earlier work
compound,measurement,setting,value
"Cc1c(F)c(N)c2c(=O)cc(-c3ccc(N)c(F)c3)oc2c1F [AF, 5-amino-2-(4-amino-3-fluorophenyl)-6,8-difluoro-7-methylchromen-4-one]",transcriptional adjustment at PS2 and Cyp1A1 promoters (ChIP),[1],dissociation of ER-related transcriptional control elements from the PS2 estrogenic promoter and their association with the Cyp1A1 promotor
same,transcriptional adjustment at PS2 and Cyp1A1 promoters (ChIP),[2],dissociation of ER-related transcriptional control elements from the PS2 estrogenic promoter and their association with the Cyp1A1 promotor
same,AF sensitivity,CAKi1,AF sensitive
same,IC50,Hs578t,20000 nM
same,IC50,MDA-MB-468,4 nM
same,IC50,MCF7,70 nM
same,IC50,T47D,110 nM
same,IC50,MDA-MB-231,70000 nM
same,AF sensitivity,SW620,AF sensitive
